From PubChem BioAssay (NCI) come the findings set out here.

Some test systems named below: EKVX NSCLC; MDA-MB-435; K-562 leukemia; COLO 205 colon; DU-145 prostate; IGROV1 ovarian; SF-295 CNS; OVCAR-3 ovarian; BT-549 breast; NCI-H460 lung.
Test in all cases: inhibition of tumour cell growth, NCI panel, 48 h

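All cell lines were grown in 96-well plates and treated with compound for 48 hours. At the TGI there is no net growth.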

On to `CN(C)c1ccc(/C=C/C=C(/C#N)c2ccccc2)cc1`, for which the TGI in the test with EKVX NSCLC is greater than 100 µM; in the test with MDA-MB-435 it was 6.19 µM; with K-562 leukemia, greater than 38 µM; in the test with COLO 205 colon, greater than 92.1 µM; with DU-145 prostate, greater than 100 µM; with IGROV1 ovarian, greater than 100 µM. The TGI with SF-295 CNS is greater than 100 µM; in the test with OVCAR-3 ovarian, 28.5 µM; with BT-549 breast it was greater than 100 µM; in the test on NCI-H460 lung, 83.7 µM.
As for `CCC(CCCC[C@@H]1CC[C@H]2CC(=O)C[C@@H]12)OC` (stereo not given in full), the TGI with EKVX NSCLC, in the test with MDA-MB-435, in the test on K-562 leukemia, in the test with COLO 205 colon, in the test on DU-145 prostate and with IGROV1 ovarian was greater than 100 µM in each case. Moreover, the TGI in the test with SF-295 CNS, in the test with OVCAR-3 ovarian, with BT-549 breast and with NCI-H460 lung was greater than 100 µM throughout.
On to `C=CC[C@H]1[C@H](O[Si](C)(C)C(C)(C)C)C=CC(=O)[C@@H]1CC(=O)N(Cc1ccccc1)Cc1ccccc1`, for which the TGI in the test with EKVX NSCLC is greater than 100 µM; in the test with MDA-MB-435 it was greater than 100 µM; in the test with K-562 leukemia, greater than 100 µM; with COLO 205 colon, 25.6 µM; in the test with DU-145 prostate, greater than 100 µM; with IGROV1 ovarian, greater than 100 µM. Moreover, the TGI is greater than 100 µM in the test on SF-295 CNS, 67 µM in the test with OVCAR-3 ovarian, 51.6 µM in the test on BT-549 breast and greater than 100 µM in the test with NCI-H460 lung.
Consider `COC(=O)/N=[N+](\[O-])C(c1ccc(OC)cc1)C1CCCCC1` (stereo not given), for which the TGI in the test with EKVX NSCLC is greater than 44.1 µM; in the test on MDA-MB-435 it was 26.4 µM; in the test on K-562 leukemia, 44.8 µM; with COLO 205 colon it was 3.36 µM; in the test on DU-145 prostate it was 10.8 µM; in the test on IGROV1 ovarian it was greater than 100 µM. Further, the TGI with SF-295 CNS was 16.4 µM; with OVCAR-3 ovarian, 33.2 µM; with BT-549 breast, 43 µM; with NCI-H460 lung it was 7.98 µM.
In the case of `Cc1ccc2c(n1)C(=O)c1ccccc1C2=O`, the TGI in the test on EKVX NSCLC is 96.3 µM; in the test on MDA-MB-435, 32.6 µM; with K-562 leukemia, greater than 84 µM; with COLO 205 colon, 37 µM; with DU-145 prostate, 36.4 µM; in the test with IGROV1 ovarian it was 73.4 µM. Also, the TGI was greater than 83.3 µM with SF-295 CNS, 16.5 µM in the test with OVCAR-3 ovarian, 89 µM in the test with BT-549 breast and greater than 69 µM in the test on NCI-H460 lung.
On to `COC(=O)/C=c1/c2ccccc2n2nc3ccccc3c12`, for which the TGI in the test on EKVX NSCLC, with MDA-MB-435, in the test on K-562 leukemia, in the test with COLO 205 colon, with DU-145 prostate and in the test on IGROV1 ovarian was greater than 100 µM in each case. The TGI in the test on SF-295 CNS, in the test with OVCAR-3 ovarian, in the test with BT-549 breast and in the test with NCI-H460 lung was greater than 100 µM throughout.
In the case of `CCCCOC(=O)C(O)Cc1ccoc1` (stereo not given), the TGI in the test with EKVX NSCLC, in the test on MDA-MB-435, with K-562 leukemia, in the test with COLO 205 colon, in the test with DU-145 prostate and in the test on IGROV1 ovarian was greater than 100 µM throughout. For the same molecule, the TGI with SF-295 CNS, in the test with OVCAR-3 ovarian, in the test with BT-549 breast and in the test on NCI-H460 lung was greater than 100 µM throughout.
On to `CN(CCc1ccc(N)cc1)[C@H]1CCCC[C@H]1N1CCCC1`, for which the TGI with EKVX NSCLC, in the test on MDA-MB-435, with K-562 leukemia, in the test with COLO 205 colon, in the test with DU-145 prostate and in the test on IGROV1 ovarian was greater than 100 µM throughout. In addition, the TGI in the test with SF-295 CNS, in the test on OVCAR-3 ovarian, in the test on BT-549 breast and in the test with NCI-H460 lung was greater than 100 µM throughout.
As to `OC1COC(n2c3ccc(Br)cc3c3ccc4c5ccccc5[nH]c4c32)C(O)C1O` (stereo not given), the TGI in the test on EKVX NSCLC is 17.3 µM; in the test with MDA-MB-435 it was 16.1 µM; in the test on K-562 leukemia, 13.6 µM; in the test on COLO 205 colon, 3.65 µM; in the test on DU-145 prostate it was 12.6 µM; with IGROV1 ovarian, 8.21 µM. Also, the TGI in the test on SF-295 CNS is 10.6 µM; in the test with OVCAR-3 ovarian, 12.5 µM; in the test with BT-549 breast it was 26.3 µM; with NCI-H460 lung, 18.6 µM.
For the molecule `CCOC(=O)CCC(NC(=O)c1ccc(N2CCN(c3c(C)nc(N)nc3N)CC2)cc1)C(=O)OCC` (stereo not given), the TGI was greater than 100 µM in the test on EKVX NSCLC; greater than 48.1 µM in the test on MDA-MB-435; 0.844 µM in the test with K-562 leukemia; greater than 100 µM in the test with COLO 205 colon; greater than 100 µM with DU-145 prostate; greater than 100 µM in the test with IGROV1 ovarian. The TGI with SF-295 CNS was greater than 100 µM; in the test with OVCAR-3 ovarian it was greater than 100 µM; in the test with BT-549 breast, greater than 100 µM; with NCI-H460 lung, 96.9 µM.
As to `COc1ccc2c(c1)c1c(n2CCN2CCCCC2)-c2ccccc2CC1`, the TGI was 36.7 µM in the test on EKVX NSCLC; 38.3 µM in the test with MDA-MB-435; 45.9 µM with K-562 leukemia; 29.5 µM in the test with COLO 205 colon; greater than 100 µM in the test with DU-145 prostate; 30.3 µM with IGROV1 ovarian. The TGI in the test with SF-295 CNS stood at 28.4 µM; in the test with OVCAR-3 ovarian, 33.8 µM; in the test on BT-549 breast, 41.5 µM; in the test on NCI-H460 lung, 28.3 µM.
